These results are taken from patent publication US10451536B2, “Method and apparatus for multi-parameter data analysis” (GE HEALTHCARE UK LIMITED, priority 2009, dated 2019).

For this data set, the system named is CHO-K1 cells. Description: High-content screening of nuclear morphology in CHO-K1 cells treated with Mitomycin C, with KS distance analysis. The class given is cell-based. As for the experimental part:
CHO-K1 cells were seeded into a GE Healthcare 96 well MatriPlate at 6000 cells/well in Ham's F12 media supplemented with 5% EBS and incubated under standard tissue culture conditions for 24 hours. Mitomycin C (MMC) solutions were added in culture media to provide final concentrations in the assay of […] and cells incubated for a further 48 hours. Media was removed from wells and cells washed once with […] phosphate buffered saline (PBS), followed by fixation in ethanol for 30 minutes at room temperature. Nuclei were stained with […] HOECHST™ 33342 (Sigma) at room temperature for 15 minutes and cells washed with […] PBS.
Cells were imaged by a GE Healthcare INCELL ANALYZER 1000™ using v3.5 acquisition software (available from GE Healthcare) with a 20× objective. Images were acquired using on-line cell counting to acquire a minimum of 1000 cells/well. Images were analysed for nuclear area, length, perimeter and weighted moment of inertia (WMOI) using GE INCELL INVESTIGATOR™ software (available from GE Healthcare).
Four nuclear morphology parameters were abstracted from images using automated image analysis and data from replicate samples exposed to the same concentrations of MMC combined to yield population distribution histograms for each of the four parameters as shown in FIGS. 7 to 10. In each of FIGS. 7 to 10 the data in panel 1 is from control cells, and the data in panels 2-12 from MMC treated cells across the range of 0.01 μM-10 μM MMC.
KS distance analysis of the data using intra-sample measurements (i.e. calculation of the KS distance between cell data in the absence of MMC and cell data at a given concentration of MMC across the range 0.01 μM-10 μM) was performed and the resulting data shown in FIG. 11.
Inter-sample KS distances were calculated for all six possible parameter pairings (Area-Length; Area-WMOI; Length-WMOI; Area-Perimeter; Length-Perimeter; Perimeter-WMOI) by calculation of KS distance between data distributions for two parameters at the same MMC concentration. In order to perform KS distance measures on the different parameters of which had variant dimensions, parameter values were normalized (Pnorm) to a range from 0-1 using the function: […]

Where [1] appears, read: CHO-K1 cells, same MMC concentration, normalized parameters, FIG. 12.

Turning to `CO[C@@]12[C@H](COC(N)=O)C3=C(C(=O)C(C)=C(N)C3=O)N1C[C@@H]1N[C@@H]12` [MMC, Mitomycin C], under “CHO-K1 cells, 0, 0.16 and 2.5 μM MMC, 48 hours, HOECHST 33342 nuclear stain, FIG. 6”, the “Nuclear size, shape and morphology in representative HCS images” value was “Changes in nuclear size, shape and morphology are clearly visible”. The “Intra-sample KS distance relative to untreated cells (nuclear area, length, perimeter, WMOI)” value (CHO-K1 cells, 0.01 μM-10 μM MMC, FIG. 11) is on record as “clear dose-dependent increase in KS distances for all four measured parameters”. The “Micronuclei formation (higher magnification view)” value (CHO-K1 cells, 0.16 μM MMC, FIG. 6 image B inset) is recorded as “nuclei with associated micronuclei arising from clastogenic DNA damage”. Under setting [1], the “Inter-sample KS distance Area and perimeter (A-W)” value is “low KS inter-sample distance at low and high MMC concentrations with an increase in KS distance at intermediate concentrations”; the “Inter-sample KS distance Area-Length (A-L)” value is reported as “constant low KS distance across the entire MMC concentration range”; the “Inter-sample KS distance Length-WMOI (L-W)” value is “constant high KS distance over most of the MMC concentration range”; the “Inter-sample KS distance Perimeter-WMOI (P-W)” value is reported as “decreases with MMC concentration”.
